Test results taken from paper PMC4725915, “Ruthenium(II) Complexes with 2-Phenylimidazo[4,5-f][1,10]phenanthroline Derivatives that Strongly Combat Cisplatin-Resistant Tumor Cells” (Scientific Reports, 2016).

Experiments:
[1] = tested on: HeLa; test: MTT cytotoxicity assay, HeLa; format: cell-based, human; settings: 48 h, mean ± SD of three experiments
Protocol: (§1) Compounds 1–4 were evaluated against three tumor cell lines derived from different tissues, including the cervix (HeLa), lung (A549) and cisplatin-resistant lung (A549R) tissues. For comparison, the cytotoxicity of cisplatin was also evaluated. As a control, the toxicities of the complexes were also tested against the normal human cell line (LO2).
(§2) The human cervix carcinoma cell line (HeLa), the lung carcinoma cell lines (A549 and A549R), and the human hepatocyte cell line (LO2) were obtained from the Experimental Animal Center at Sun Yat-Sen University (Guangzhou, China). The cells were maintained in Dulbecco’s modified Eagle’s medium (DMEM, Gibco BRL) or Roswell Park Memorial Institute 1640 (RPMI 1640, Gibco BRL) medium supplemented with 10% fetal bovine serum (FBS, Gibco BRL), 100 μg/mL streptomycin, and 100 U/mL penicillin (Gibco BRL) in a humidified incubator under 5% CO2 and 20% O2 at 37 °C. To maintain the resistant phenotype, A549R cells were incubated with 5 μM cisplatin and cultured in drug-free medium for at least a week before use.
(§3) The cytotoxicity of the ruthenium complexes and cisplatin were determined by an MTT assay. Briefly, cells were seeded into 96-well microtiter plates at 1 × 10^4 cells per well and grown overnight at 37 °C in a 5% CO2 incubator; then, different concentrations of the complexes in cell culture medium were added to the cultures. The plates were then incubated in an incubator for 48 h under the same conditions. The stock MTT dye solution (15 μL, 5 mg/mL) was added to each well. After 4 h of incubation, the cultures were removed and 150 μL of DMSO was added to each well. The optical density of each well was measured on a microplate spectrophotometer at a wavelength of 595 nm.

[2] = tested on: A549; test: MTT cytotoxicity assay, A549; format: cell-based, human; settings: A549, 48 h, mean ± SD of three experiments
Protocol: as §1, §2, §3

[3] = tested on: A549R; test: MTT cytotoxicity assay, cisplatin-resistant A549R; format: cell-based, human; settings: 48 h, mean ± SD of three experiments
Protocol: as §1, §2, §3

[4] = tested on: LO2; test: MTT cytotoxicity assay, normal LO2 cells; format: cell-based; settings: LO2 normal human cell line, 48 h
Protocol: as §1, §2, §3

[5] = tested on: A549R MCTSs; test: Cytotoxicity test on 3D MCTSs (Cell TiterGlo ATP); format: cell-based, human; settings: A549R MCTSs (~400 μm in diameter), 48 h
Protocol: (§4) MCTSs were cultured using the liquid overlay method. A549R cells in the exponential growth phase were dissociated by a trypsin/EDTA solution to gain single-cell suspensions. A number of 3000 diluted A549R cells were transferred to 1.5% agarose-coated transparent 96-well plates with 200 μL of DMEM containing 10% serum. The single cells formed MCTS aggregates approximately 400 μm in diameter after three days with 5% CO2 and 20% O2 at 37 °C. After formation of the MCTSs, each MCTS in a 96-well plate was imaged with a phase contrast microscope (Zeiss Axio Observer D1, Germany) using 10× objective to monitor their color, integrity, diameter, and volume.
A549R MCTSs (diameters ≈400 μm) were treated by carefully replacing 50% of the medium with drug-supplemented standard medium using an eight-channel pipet. In parallel, 50% of the medium containing solvent was replaced with solvent-free medium for the untreated MCTSs. Three A549R MCTSs were treated per condition and drug concentration; the DMSO volume was less than 1% (v/v). The MCTSs were then allowed to incubate for another 48 h. The cytotoxicities of the Ru(II) complexes toward the MCTSs were measured using ATP concentrations with a Cell TiterGlo kit (Promega). After 30 min of incubation, the MCTSs were carefully transferred into black-sided, flat-bottomed 96-well plates (Corning) and mixed with a pipet for luminescence measurements on an Infinite M200 PRO instrument (TECAN).

[6] = tested on: cancer cell lines (HeLa, A549, A549R); test: MTT cytotoxicity, all tested cancer cell lines taken together; format: cell-based, human; settings: 48 h, read-out: IC50 toward all the tested cancer cell lines
Protocol: as §1, §3

[7] = Distribution coefficient (log Po/w), flask-shaking, n-octanol/phosphate buffer; format: physicochemical; settings: n-octanol / phosphate buffer pH 7.4, 37 °C; in words only (Figure S8)
Protocol: Distribution coefficients (log Po/w) were determined by liquid-liquid extraction between n-octanol (oil) and phosphate buffers (0.2 M, pH 7.4) with the flask-shaking method. N-Octanol and the buffer were mutually saturated with each other for at least 24 h before use. An aliquot of a ruthenium complex stock solution was added to the phosphate buffer concentrations at <10 mg/mL, and the mixture was shaken at 100 rpm for 24 h at 37 °C to allow for adequate partitioning. After the sample was centrifuged at 3000 rpm for 20 min, the aqueous layer was used for ruthenium analysis, and the Ru content in the aqueous layer was measured by ICP-MS and used to calculate the log Po/w.

[8] = tested on: A549R cells; test: Cell uptake study by ICP-MS; format: cell-based, human; settings: 2.0 μM, 12 h
Protocol: (§5) To understand the high sensitivity of cancer cells to Ru(II) complexes, the extent of cellular uptake was investigated with inductively coupled plasma mass spectrometry (ICP-MS) by treating the HeLa, A549, A549R and LO2 cell lines with 2.0 μM concentrations of the Ru(II) complexes and cisplatin for 12 h. […] In this study, the cellular uptake and lipophilicity were distinctly correlated and followed the order: 4 >3 >2 >1. Complex 4 had the best accumulation, but the amount of Ru in LO2 cells was far less than that in the three cancer lines, indicating selective accumulation and improved efficiency for treating cancer. Cisplatin was taken up more efficiently by the sensitive cell line (A549) than by the cisplatin-resistant cell line (A549R). […] However, less than 1.5% of the cellular platinum was accumulated in the mitochondrial fraction of the A549R cells. Therefore, complex 4 could function in a different manner than cisplatin in A549R cells, which would be an appropriate solution to combat cisplatin resistance in tumor cells.
The cells were plated at a density of 1 × 10^5 cells/mL in 10 mL of DMEM for 24 h at 37 °C under 5% CO2 and 20% O2, Ruthenium complexes (2.0 μM) and cisplatin were added to the culture medium and incubated for 12 h, and mixed with cold PBS and a trypsin-EDTA solution in a centrifuge tube for counting. Then, the nuclei and cytoplasm of the cells were extracted by using a Nuclear and Cytoplasmic Protein Extraction Kit (Life Technologies). The samples were digested in 20% HNO3 and 10% H2O2 at room temperature overnight. Each sample was then diluted with Milli-Q water to obtain 2% HNO3 sample solutions. Ruthenium contents were determined using inductively coupled plasma mass spectrometry (ICP-MS Thermo Elemental Co., Ltd.).

[9] = tested on: A549R cells; test: Subcellular distribution study by ICP-MS; format: cell-based, human; settings: 2.0 μM, 12 h
Protocol: as §5
A549R cells were plated at a density of 1 × 10^5 cells/mL in 10 mL of DMEM for 24 h at 37 °C under 5% CO2 and 20% O2. […] The ruthenium or platinum contents were determined using inductively coupled plasma mass spectrometry (ICP-MS Thermo Elemental Co., Ltd.).

[10] = tested on: A549R cells; test: Real-time cell growth and proliferation assay (xCELLigence); format: cell-based, human; settings: 100 μM
Protocol: In addition, a real-time cell growth and proliferation assay using an xCELLigence System was utilized to confirm the high toxicity of complex 4 on A549R cells. […] In contrast, A549R cells were killed by treatment with complex 4 in a concentration-dependent manner.
This experiment was performed using an xCELLigence RTCA DP system real time cell analyzer (Roche Diagnostics GmbH, Germany). In brief, 80 μL of cell culture media was added to each well of a 16-well plate (E-plate 16, Roche Diagnostics GmbH, Germany). The 16-well plates were then connected to the system and checked for suitable electrical contacts in the real time cell analyzer, and the background impedance was measured for 24 s. Meanwhile, the A549R cells were suspended in cell culture medium and adjusted to 5 × 10^4 cells/mL, and 100 μL of each cell suspension was added to each well of […]. Approximately 24 h after seeding, the A549R cells were in the logarithmic phase of growth, and a wide range of concentrations of complex 4 and cisplatin (100 μM) were added. The cells were automatically monitored every 15 min over 48 h by the xCELLigence system. Data were analyzed using RTCA software (version 1.2) that was supplied with the instrument.

[11] = tested on: A549R MCTSs; test: Growth inhibition of drug-treated MCTSs (size by imaging); format: cell-based, human; settings: 100 μM
Description: Traditional research on the efficacy of cancer drugs is usually performed in two-dimensional (2-D) cell cultures, which may not be a true indicator of the in vivo effectiveness of cancer treatments. This is in part due to the absence of cell-cell or cell-extracellular matrix interactions in 2-D cell models. Therefore, the development of cell culture models that can close the gap between conventional 2-D cell experiments and animal studies is necessary to study the cytotoxicity and anti-proliferative activities of drugs. Multicellular tumor spheroids (MCTSs) are heterogeneous cellular aggregates that have properties of solid tumors, such as nutrient and oxygen gradients, hypoxic/necrotic regions, cell-cell matrix interactions, and gene expression.
as §4, with “After formation of the MCTSs, each MCTS in a 96-well plate was imaged with a phase contrast microscope (Zeiss Axio Observer D1, Germany) using 10× objective to monitor their color, integrity, diameter, and volume.” left out

Compound: [Ru+2].c1ccc(-c2nc3c4cccnc4c4ncccc4c3[nH]2)cc1.c1cnc2c(c1)ccc1cccnc12.c1cnc2c(c1)ccc1cccnc12 [Complex 1, [Ru(phen)2(PIP)]^2+]
- IC50 [1]: > 100 µM
- IC50 [2]: > 100 µM
- IC50 [3]: > 100 µM
- IC50 [4]: > 100 µM
- IC50 [5]: > 100 µM
- IC50 [6]: > 100 µM
- log Po/w [7]: negative

Compound: FC(F)(F)c1ccc(-c2nc3c4cccnc4c4ncccc4c3[nH]2)cc1.[Ru+2].c1cnc2c(c1)ccc1cccnc12.c1cnc2c(c1)ccc1cccnc12 [Complex 2]
- IC50 [1]: 55.4 ± 3.1 µM
- IC50 [2]: 43.4 ± 5.3 µM
- IC50 [3]: 48.2 ± 2.7 µM
- IC50 [4]: 75.8 ± 7.5 µM
- IC50 [5]: 95.7 µM
- log Po/w [7]: moderate

Compound: N.N.[Cl][Pt][Cl] [cisplatin]
- IC50 [1]: 15.1 ± 2.1 µM
- IC50 [2]: 21.3 ± 3.3 µM
- IC50 [3]: 142 ± 5.4 µM
- IC50 [4]: 18.9 ± 2.6 µM
- IC50 [5]: > 200 µM
- share of the compound taken up by A549R cells ([8]; A549R): less than 1%
- platinum level in A549 cells relative to A549R cells ([8]; A549 vs A549R): ca. 4 fold
- share of cellular metal accumulated in the mitochondrial fraction [9]: less than 1.5%
- effect on A549R cells compared to the control (xCELLigence) [10]: negative effect
- change in size of A549R MCTSs [11]: increased with time

Compound: Ru(phen)2(tbtfpip)(PF6)2 [Complex 3]
- IC50 [1]: 22.5 ± 3.3 µM
- IC50 [2]: 28.6 ± 2.6 µM
- IC50 [3]: 32.2 ± 1.5 µM
- IC50 [4]: 45.6 ± 3.8 µM
- IC50 [5]: 60.6 ± 5.5 µM
- log Po/w [7]: moderate
